Each structure is given as a SMILES string. Some results are limits rather than exact numbers.

By EC50 is commonly meant the concentration needed to bring the measured effect to its halfway point. The term IC50 denotes the concentration at which inhibition is half-maximal. By GI50 is commonly meant the concentration that inhibits growth by half.

Data set [1] relates to P. falciparum K1 strain. Nature of the data set: Antiplasmodial DNA stain-based growth assay. It is filed as cell-based. Conditions: Plasmodium falciparum, K1; chloroquine-resistant strain; 72 h incubation; read-out: P. falciparum K1 EC50. The procedure: (§1) Assays were performed by using previously described DNA stain-based assay and methods, including cytotoxicity assays.

Data set [2] deals with P. falciparum 3D7 strain. The data set can be described thus: Antiplasmodial DNA stain-based growth assay. In kind it is cell-based. Conditions: Plasmodium falciparum, 3D7; chloroquine-sensitive strain; 72 h incubation; read-out: P. falciparum 3D7 EC50. The method, then: as §1
The test system of data set [3] is L. infantum promastigotes. Nature of the data set: Antileishmanial in vitro promastigote assay. Conditions: Leishmania infantum, read-out: L. infantum IC50 ± SD.
Protocol: (§3) The compounds were additionally studied in a panel of mammalian cell lines to determine cytotoxicity.
(§4) The parasites, culture procedure and the activity of functionalized abietane analogs on Leishmania promastigotes were performed according to the method previously reported by us [28], while the intracellular amastigote assay was performed on L. amazonensis and L. infantum according to the fluorometric test [29]. The J774 cell culture and the cytotoxicity assay was carried out according to our previously described method [30].
The test system of data set [4] is L. donovani promastigotes. Nature of the data set: Antileishmanial in vitro promastigote assay. Conditions: Leishmania donovani, read-out: L. donovani IC50 ± SD.
Protocol: as §3, §4
Data set [5] concerns WiDr (Colon). The data set can be described thus: Antiproliferative SRB assay. Conditions: Homo sapiens, WiDr, mean ± SD of at least two experiments. In kind it is cell-based, human. The procedure: (§2) Cells, cultures and the activity test of abietane analogs followed reported methods. The SRB assay was performed as previously described, and the antiproliferative activity was given as GI50 values, which were calculated according to NCI formulas.
(Sulforhodamine B stains cellular protein and so reports cell mass.)

For data set [6], the system named is A549 (Lung). Nature of the data set: Antiproliferative SRB assay. In kind it is cell-based, human. Conditions: Homo sapiens, A549, mean ± SD of at least two experiments. The procedure: as §2
In data set [7] the test system is SW1573 (Lung). The data set can be described thus: Antiproliferative SRB assay. In kind it is cell-based, human. Conditions: Homo sapiens, SW1573, mean ± SD of at least two experiments. The method, then:
as §2

Data set [8] concerns HeLa (Cervix). The data set can be described thus: Antiproliferative SRB assay. Conditions: Homo sapiens, mean ± SD of at least two experiments. It is filed as cell-based. The procedure: as §2
In data set [9] the test system is HBL-100 (Breast). Nature of the data set: Antiproliferative SRB assay. In kind it is cell-based. Conditions: Homo sapiens, mean ± SD of at least two experiments. The procedure:
as §2

The test system of data set [10] is T-47D (Breast). Nature of the data set: Antiproliferative SRB assay. Conditions: Homo sapiens, T47D, mean ± SD of at least two experiments. In kind it is cell-based. The method, then:
as §2

For data set [11], the system named is BJ. Nature of the data set: Cytotoxicity on mammalian cell lines. It is filed as cell-based. Conditions: Homo sapiens, read-out: BJ EC50. The procedure:
as §1

For data set [12], the system named is HepG2. The data set can be described thus: Cytotoxicity on mammalian cell lines. It is filed as cell-based. Conditions: Homo sapiens, HepG2; read-out: HepG2 EC50. The procedure: as §1
Data set [13] concerns RAJI. The data set can be described thus: Cytotoxicity on mammalian cell lines. Conditions: Homo sapiens, read-out: RAJI EC50. It is filed as cell-based. The method, then: as §1
Data set [14] relates to HEK293. The data set can be described thus: Cytotoxicity on mammalian cell lines. It is filed as cell-based. Conditions: Homo sapiens, HEK293; read-out: HEK293 EC50. The method, then:
as §1

Data set [15] in a line: Cytotoxicity assay on J774 macrophages. Conditions: mouse, Macrophages J774 CC50, 50% reduction of cell viability.
Protocol: as §3, §4
The subject of data set [16] is L. amazonensis promastigotes. Nature of the data set: Antileishmanial in vitro promastigote assay. Conditions: Leishmania amazonensis, read-out: L. amazonensis IC50 ± SD.
Protocol: as §3, §4
Data set [17] relates to L. infantum amastigotes. Nature of the data set: Intracellular amastigote assay (fluorometric test). It is filed as cell-based. Conditions: Leishmania infantum, read-out: L. infantum IC50 ± SD.
The test system of data set [18] is L. amazonensis amastigotes. Nature of the data set: Intracellular amastigote assay (fluorometric test). It is filed as cell-based. Conditions: Leishmania amazonensis, read-out: L. amazonensis IC50 ± SD.
The subject of data set [19] is L. guyanensis promastigotes. The data set can be described thus: Antileishmanial in vitro promastigote assay. Conditions: Leishmania guyanensis, read-out: L. guyanensis IC50 ± SD.
Protocol: as §3, §4
For data set [20], the target named is GABAA receptor subtype (α1β2γ2S) (Homo sapiens, UniProt P14867+P18507+P47870). The data set can be described thus: Two-microelectrode voltage-clamp in Xenopus laevis oocytes. Conditions: for activation at 10 µM: read-out: IGABA Potentiation of 10 µM (%); for activation at 100 µM: read-out: IGABA Potentiation of 100 µM (%).
Protocol: All molecules were tested at concentrations of 10, 100 μM and compared with dehydroabietic acid (DHA) (3) as a reference [16].
Data set [21] is described as follows: in vitro. Conditions: mouse, Macrophages J774 CC50.
Protocol: as §3, §4
Data set [22] concerns Macrophages J774. Conditions: mouse.
Protocol: as §3, §4
The test system of data set [23] is Leishmania promastigotes (L. donovani, L. infantum, L. guyanensis, L. amazonensis). The data set can be described thus: Antipromastigote activity over the tested Leishmania spp. Conditions: read-out: antipromastigote activity IC50 values (range over species).
Protocol: The parasites, culture procedure and the activity of functionalized abietane analogs on Leishmania promastigotes were performed according to the method previously reported by us [28], while the intracellular amastigote assay was performed on L. amazonensis and L. infantum according to the fluorometric test [29].
The subject of data set [24] is human solid tumor cell lines HBL-100, A549, HeLa, T-47D, SW1573, WiDr. The data set can be described thus: Antiproliferative SRB assay, panel of six cell lines. It is filed as cell-based. Conditions: over the six solid tumor cell lines, read-out: GI50 (range over the cell lines). The procedure: as §2
Data set [25] deals with A549 cell line. On the set-up: method as in doi:10.1016/j.phytol.2013.04.003. Conditions: MTT method; cited from earlier work. A general note: Formazan colour is commonly taken as a measure of viable cells.

GABAA receptor subtype (α1β2γ2S), sequence (P14867 28-456): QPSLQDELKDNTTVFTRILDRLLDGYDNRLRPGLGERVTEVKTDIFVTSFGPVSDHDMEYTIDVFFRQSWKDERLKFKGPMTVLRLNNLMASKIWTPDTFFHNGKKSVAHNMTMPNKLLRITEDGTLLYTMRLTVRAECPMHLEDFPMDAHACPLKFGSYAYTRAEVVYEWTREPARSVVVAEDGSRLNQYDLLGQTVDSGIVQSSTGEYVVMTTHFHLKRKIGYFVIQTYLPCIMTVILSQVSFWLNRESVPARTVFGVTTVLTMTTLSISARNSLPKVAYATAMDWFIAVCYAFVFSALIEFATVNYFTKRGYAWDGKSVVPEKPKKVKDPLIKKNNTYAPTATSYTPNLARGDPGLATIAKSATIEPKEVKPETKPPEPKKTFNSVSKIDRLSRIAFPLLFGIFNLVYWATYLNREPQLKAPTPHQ
GABAA receptor subtype (α1β2γ2S), sequence (P47870 26-512): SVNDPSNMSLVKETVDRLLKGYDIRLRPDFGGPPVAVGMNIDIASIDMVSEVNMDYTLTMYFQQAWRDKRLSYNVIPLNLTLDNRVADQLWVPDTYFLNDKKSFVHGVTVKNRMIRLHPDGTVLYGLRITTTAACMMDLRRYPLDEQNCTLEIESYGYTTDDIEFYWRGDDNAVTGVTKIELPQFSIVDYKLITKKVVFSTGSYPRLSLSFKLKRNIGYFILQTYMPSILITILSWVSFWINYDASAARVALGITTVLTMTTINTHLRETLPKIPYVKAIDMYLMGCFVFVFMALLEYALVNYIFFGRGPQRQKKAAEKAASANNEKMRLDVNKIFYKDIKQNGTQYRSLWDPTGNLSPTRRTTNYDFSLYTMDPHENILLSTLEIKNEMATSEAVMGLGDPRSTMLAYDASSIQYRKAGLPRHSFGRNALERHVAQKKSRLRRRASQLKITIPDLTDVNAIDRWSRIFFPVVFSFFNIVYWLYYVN
GABAA receptor subtype (α1β2γ2S), sequence (P18507 40-467 isoform P18507-1 limits assumed): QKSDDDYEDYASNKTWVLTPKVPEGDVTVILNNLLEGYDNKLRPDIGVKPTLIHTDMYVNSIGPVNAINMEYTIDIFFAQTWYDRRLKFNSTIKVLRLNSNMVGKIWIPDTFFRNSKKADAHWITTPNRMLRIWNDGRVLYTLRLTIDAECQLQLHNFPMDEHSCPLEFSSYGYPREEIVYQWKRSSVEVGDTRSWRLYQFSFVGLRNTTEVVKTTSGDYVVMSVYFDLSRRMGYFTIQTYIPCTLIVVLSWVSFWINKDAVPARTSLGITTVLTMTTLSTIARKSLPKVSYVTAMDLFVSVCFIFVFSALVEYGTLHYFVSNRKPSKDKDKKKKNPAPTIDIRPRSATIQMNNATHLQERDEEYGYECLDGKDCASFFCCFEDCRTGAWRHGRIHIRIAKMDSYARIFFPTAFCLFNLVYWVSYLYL

Regarding `COC(=O)[C@@]1(C)CCC[C@]2(C)c3cc(OC(C)=O)c(C(C)C)cc3CC[C@@H]12` [Compound 10], the 50% effective concentration (EC50) in data set [1] was 3.1 µM; in [2], greater than 15 µM; in data set [11], greater than 25 µM; in data set [12], greater than 25 µM; in data set [13] it was greater than 25 µM; in data set [14], greater than 25 µM. The half-maximal inhibitory concentration (IC50) came out at 3.6 ± 0.6 µM in data set [3], 3.9 ± 0.1 µM in [4] and 7.4 ± 0.6 µM in [16]. For the same compound, the GI50 in [5] turned out to be 4.5 ± 1.4 µM; in data set [6], 6.5 ± 2.7 µM; in data set [7], 18 ± 3.4 µM; in data set [8], 7 ± 1.7 µM; in data set [9], 11 ± 2.3 µM; in data set [10], 4.2 ± 1.5 µM. For the same compound, the CC50 in data set [15] was 30.2 ± 2 µM.
In the case of `COC(=O)[C@@]1(C)CCC[C@]2(C)c3cc(C(C)=O)c(C(C)C)cc3CC[C@@H]12` [Compound 9], the concentration giving a half-maximal response (EC50) in data set [1] is 12.6 µM; in [2], 12.8 µM; in data set [11], greater than 25 µM; in data set [12] it was greater than 25 µM; in data set [13], greater than 25 µM; in data set [14] it was greater than 25 µM. The IC50 in [3] amounted to 20.3 ± 4.6 µM; in [4], 8.9 ± 2 µM; in data set [17], 22.7 ± 5.9 µM; in data set [18] it was 30.3 ± 1.2 µM; in data set [19], 18.7 ± 0.8 µM; in [16] it was 14.1 ± 1.4 µM. Further, the GI50 in data set [5] is 15 ± 2.1 µM; in data set [6] it was 15 ± 7 µM; in data set [7] it was 25 ± 11 µM; in [8], 15 ± 4.1 µM; in data set [9], 14 ± 2.1 µM; in data set [10] it was 14 ± 1 µM. Further, in data set [15], the CC50 is greater than 200 µM.
On to `COC(=O)[C@@]1(C)CCC[C@]2(C)c3cc(O)c(C(C)C)cc3C(=O)C[C@@H]12` [Compound 16], for which the EC50 was 3.9 µM in data set [1]; 4.8 µM in data set [2]; greater than 25 µM in data set [11]; greater than 25 µM in [12]; greater than 25 µM in data set [13]; greater than 25 µM in data set [14]. Moreover, the 50% inhibitory concentration (IC50) was found to be 10.1 ± 1.4 µM in [3]; 11.8 ± 0.8 µM in data set [4]; 16.5 ± 4.6 µM in data set [17]; 16.1 ± 2 µM in [18]; 5.6 ± 0.6 µM in data set [19]; 8.5 ± 0.3 µM in [16]. The activation at 10 µM in data set [20] stood at 5 ± 4%. In addition, in data set [20], the activation at 100 µM worked out at 104 ± 26%. Moreover, the GI50 in data set [5] was 6.1 ± 4.2 µM; in data set [6] it was 11 ± 6.9 µM; in data set [7] it was greater than 100 µM; in data set [8] it was 18 ± 1.7 µM; in data set [9] it was 65 ± 4.9 µM; in data set [10], 47 ± 25 µM. In addition, the CC50 in data set [21] is greater than 200 µM.
Take `COC(=O)[C@@]1(C)CCC[C@]2(C)c3cc(OC(C)=O)c(C(C)C)cc3C(=O)C[C@@H]12` [Compound 11]: the concentration giving a half-maximal response (EC50) in data set [1] is 5.7 µM; in [2] it was 7.1 µM; in data set [11] it was greater than 25 µM; in [12], greater than 25 µM; in [13], greater than 25 µM; in [14] it was greater than 25 µM. Moreover, the activation at 10 µM in data set [20] was 1 ± 3%. For the same compound, the activation at 100 µM in [20] amounted to 75 ± 4%. Also, the 50% growth inhibitory concentration (GI50) in data set [5] is 5.2 ± 3.1 µM; in data set [6], 3.1 ± 0.9 µM; in data set [7] it was 17 ± 7.5 µM; in [8] it was 5.6 ± 2.9 µM; in data set [9], 7.4 ± 0.7 µM; in data set [10], 6.1 ± 1.9 µM. Moreover, the CC50 in [15] was 45.8 ± 5.6 µM.
Turning to `CC(C)c1cc2c(cc1O)[C@@]1(C)CCC[C@](C)(C(=O)O)[C@@H]1CC2` [Compound 13, lambertic acid], the concentration giving a half-maximal response (EC50) in [1] is greater than 15 µM; in data set [2], greater than 15 µM; in data set [11], greater than 25 µM; in data set [12], greater than 25 µM; in data set [13], greater than 25 µM; in data set [14] it was greater than 25 µM. For the same compound, the IC50 in data set [3] was found to be 29.1 ± 1.5 µM; in [4] it was 12.8 ± 2.8 µM; in data set [17] it was 19.2 ± 3.8 µM; in data set [18], 8.8 ± 1.6 µM; in [19], 17.8 ± 1.2 µM; in data set [16], 51.5 ± 3.2 µM. Also, in data set [23], the IC50 fell in the range of 12.8 to 51.5 µM. Besides, the activation at 10 µM in data set [20] is 3 ± 3%. Moreover, the activation at 100 µM in [20] was 71 ± 23%. Further, the concentration for 50% growth inhibition (GI50) is 59 ± 7.3 µM in [5]; 17 ± 6.1 µM in data set [6]; 32 ± 8.9 µM in data set [7]; 29 ± 13 µM in data set [8]; 34 ± 4.2 µM in data set [9]; 41 ± 8.4 µM in data set [10]. The CC50 in data set [22] was 217 ± 34 µM; in data set [21], greater than 200 µM. The “fold less cytotoxic than 12-hydroxydehydroabietic acid” value in [22] is on record as 2.5 fold.
Turning to `COC(=O)[C@@]1(C)CCC[C@]2(C)c3cc(O)c(C(C)C)cc3CC[C@@H]12` [Compound 12], the EC50 is 2.1 µM in data set [1]; 4.7 µM in [2]; greater than 25 µM in [11]; greater than 25 µM in data set [12]; greater than 25 µM in data set [13]; greater than 25 µM in data set [14]. The activation at 10 µM in [20] was 1 ± 3%. Besides, the activation at 100 µM in data set [20] was determined as 65 ± 6%. Moreover, the 50% growth inhibitory concentration (GI50) came to 3.7 ± 1.9 µM in [5]; 2.3 ± 1.5 µM in data set [6]; 12 ± 4.1 µM in [7]; 5.1 ± 1.9 µM in data set [8]; 11 ± 3 µM in data set [9]; 4.2 ± 1.3 µM in data set [10]. For the same compound, the CC50 in data set [15] is 65.4 ± 7 µM.
As to `CC(C)c1cc2c(cc1O)[C@@]1(C)CCC[C@](C)(CO)[C@@H]1CC2` [Compound 14, 19-hydroxyferruginol], the EC50 in [1] was 11.6 µM; in data set [2], greater than 15 µM; in data set [11], greater than 25 µM; in data set [12], greater than 25 µM; in data set [13], greater than 25 µM; in data set [14], greater than 25 µM. Moreover, the concentration for 50% growth inhibition (GI50) is 1.8 to 13 µM in data set [24]; 13 ± 3.7 µM in [5]; 1.8 ± 0.4 µM in data set [6]; 13 ± 1.3 µM in data set [7]; 3.1 ± 0.9 µM in data set [8]; 13 ± 1.6 µM in data set [9]. This compound also came in with a GI50 in data set [10] of 12 ± 1.8 µM. Also, the activation at 10 µM in data set [20] amounted to 64 ± 13%. The activation at 100 µM in [20] was determined as 507%. For the same compound, the CC50 in [21] is 51.9 ± 5.9 µM. The 50% inhibitory concentration (IC50) in data set [25] was 14 µM.

These data come from PMC7918733, “Biological Profiling of Semisynthetic C19-Functionalized Ferruginol and Sugiol Analogues” (Antibiotics, 2021).
